# Measurements taken from patent US9181241B2, “Antagonists of chemokine receptors” (ChemoCentryx, Inc., priority 2012, dated 2015).
# Target: T1, CCR1 (Homo sapiens, UniProt P32246)
# T1 construct: host or cells: THP-1 cells or isolated human CD14+ monocytes
# T1 sequence (P32246 1-355): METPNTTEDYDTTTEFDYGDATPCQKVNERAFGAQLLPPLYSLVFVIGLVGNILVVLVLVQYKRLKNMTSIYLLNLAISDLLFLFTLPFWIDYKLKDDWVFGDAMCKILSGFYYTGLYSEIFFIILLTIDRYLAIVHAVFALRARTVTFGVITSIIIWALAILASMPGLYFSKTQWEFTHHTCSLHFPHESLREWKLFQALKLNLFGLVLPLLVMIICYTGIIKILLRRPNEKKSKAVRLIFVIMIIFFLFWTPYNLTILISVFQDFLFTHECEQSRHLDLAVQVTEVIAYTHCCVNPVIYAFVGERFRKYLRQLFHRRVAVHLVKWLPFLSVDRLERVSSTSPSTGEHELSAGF
# Experiment: Chemotaxis assay (CTX): inhibition of CCR1 mediated migration of THP-1 or monocyte cells
# Format: cell-based
# Conditions: class symbols; activity for either the chemotaxis assay or binding assay
# Description: THP-1 cells were obtained from ATCC (TIB-202) and cultured as a suspension in RPMI-1640 medium supplemented with 2 mM L-glutamine, 1.5 g/L sodium bicarbonate, 4.5 g/L glucose, 10 mM HEPES, 1 mM sodium pyruvate, 0.05% 2-mercaptoethanol and 10% FBS. Cells were grown under 5% CO2/95% air, 100% humidity at 37° C. and subcultured twice weekly at 1:5 (cells were cultured at a density range of 2×10^5 to 2×10^6 cells/mL) and harvested at 1×10^6 cells/mL. THP-1 cells express CCR1 and can be used in CCR1 binding and functional assays.
# Monocytes were isolated from human buffy coats using the Miltenyi bead isolation system (Miltenyi, Auburn, Calif.). Briefly, following a Ficoll gradient separation to isolate peripheral blood mononuclear cells, cells were washed with PBS and the red blood cells lysed using standard procedures. Remaining cells were labeled with anti-CD14 antibodies coupled to magnetic beads (Miltenyi Biotech, Auburn, Calif.). Labeled cells were passed through AutoMACS (Miltenyi, Auburn, Calif.) and positive fraction collected. Monocytes express CCR1 and can be used in CCR1 binding and functional assays.
# Chemotaxis assays were performed using 5 μm pore polycarbonate, polyvinylpyrrolidone-coated filters in 96-well chemotaxis chambers (Neuroprobe; Gaithersburg, Md.) using chemotaxis buffer (Hank's balanced salt solution (HBSS) and 1% FBS). CCR1 chemokine ligands (i.e., MIP-1α, CCL15/Leukotactin; R&D Systems; Minneapolis, Minn.) are use to evaluate compound mediated inhibition of CCR1 mediated migration. Other chemokines (i.e., SDF-1α; R&D Systems; Minneapolis, Minn.) are used as specificity controls. The lower chamber was loaded with 29 μl of chemokine (i.e., 0.1 nM CCL15/Leukotactin) and varying amounts of compound; the top chamber contained 100,000 THP-1 or monocyte cells in 20 μl. The chambers were incubated 1-2 hours at 37° C., and the number of cells in the lower chamber quantified either by direct cell counts in five high powered fields per well or by the CyQuant assay (Molecular Probes), a fluorescent dye method that measures nucleic acid content, and by measuring with a Spectrafluor Plus (Tecan). The computer program Prism from GraphPad, Inc. (San Diego, Calif.) was used to calculate IC50 values. IC50 values are those compound concentrations required to inhibit the number of cells responding to a CCR1 agonist by 50%.
row,Compound,IC50 [nM]
1,Cc1cc(C(F)(F)F)nn1C(CO)C(=O)N1CCCc2c1cnn2-c1ccc(F)cc1 (stereo not drawn),< 1000
2,Cc1cc(C(F)(F)F)nn1C(CC(N)=O)C(=O)N1CCCc2c1cnn2-c1ccc(F)cc1 (stereo not drawn),< 1000
3,O=C(Cc1nc2ccccc2o1)N1CCCc2c1cnn2-c1ccc(F)cc1,< 1000
4,Cc1nc(C(F)(F)F)nn1C(C)C(=O)N1CCCc2c1cnn2-c1ccc(Cl)cc1 (stereo not drawn),< 1000
5,Cc1c(Cl)c(C(F)(F)F)nn1C(C(=O)N1CCCc2c1cnn2-c1ccc(F)cc1)C(C)C (stereo not drawn),< 1000
6,N#Cc1cnn(CC(=O)N2CCCc3c2cnn3-c2ccc(F)cc2)c1,2500 to 12500
7,CC(C)(C(=O)N1CCCc2c1cnn2-c1ccc(F)cc1)c1ccc(Cl)c(C(F)(F)F)c1,< 1000
8,CCC(C(=O)N1c2cnn(-c3ccc(F)cc3)c2CCC1C)n1nc(C(F)(F)F)cc1C (stereo not drawn),< 1000
9,Cc1nc(C(F)(F)F)cn1C(C)C(=O)N1CCCc2c1cnn2-c1ccc(F)cc1 (stereo not drawn),< 1000
10,CCC(C(=O)N1CCCc2c1cnn2-c1ccc(F)cc1)n1nc(C(C)(C)O)cc1C (stereo not drawn),< 1000
11,O=C(Cn1nc(C(F)(F)F)c2cccnc21)N1CCCc2c1cnn2-c1ccc(F)cc1,< 1000
12,Cc1c(Cl)c(C(F)(F)F)nn1CC(=O)N1CCCc2c1cnn2-c1ccc(F)cc1,< 1000
13,O=C(Cc1cccc(C(F)(F)F)c1)N1CCCc2c1cnn2-c1ccc(F)cc1,< 1000
14,O=C(Cc1nccc(C(F)(F)F)n1)N1CCCc2c1cnn2-c1ccc(F)cc1,2500 to 12500
15,Cc1c(Cl)c(-c2ncc[nH]2)nn1CC(=O)N1CCCc2c1cnn2-c1ccc(F)cc1,< 1000
16,CC(C)(O)c1cnn(CC(=O)N2CCCc3c2cnn3-c2ccc(F)cc2)c1,2500 to 12500
17,Cc1nc(C(F)(F)F)nn1CC(=O)N1CCCc2c1cnn2-c1ccc(F)cc1,< 1000
18,Cc1c(Cl)c(C(F)F)nn1CC(=O)N1CCCc2c1cnn2-c1ccc(F)cc1,< 1000
19,Cc1c(Cl)c(C(F)(F)F)nn1C(CO)C(=O)N1CCCc2c1cnn2-c1ccc(F)cc1 (stereo not drawn) [drawing 103],< 1000
20,CC(C(=O)N1CCCc2c1cnn2-c1ccc(F)cc1)c1ccc(Cl)c(C(F)(F)F)c1 (stereo not drawn),< 1000
21,Cc1c(Cl)c(-c2ncccn2)nn1CC(=O)N1CCCc2c1cnn2-c1ccc(F)cc1,< 1000
22,Cc1nn(-c2ccc(F)cc2)c2c1N(C(=O)Cn1nc(C(F)(F)F)c(Cl)c1C)CCC2,< 1000
23,O=C(Cc1ccc(C(F)(F)F)cc1Cl)N1CCCc2c1cnn2-c1ccc(F)cc1,< 1000
24,Cc1ccnn1CC(=O)N1CCCc2c1cnn2-c1ccc(F)cc1,< 1000
25,O=C(Cc1ccc(C(F)(F)F)c(Cl)c1)N1CCCc2c1cnn2-c1ccc(F)cc1,< 1000
26,Cc1c(Cl)c(C(F)(F)F)nn1CC(=O)N1CCCc2c1cnn2-c1ccc(F)cc1F,< 1000

row,Compound,IC50 [nM]
1,Cc1nc(C(F)(F)F)cn1[C@@H](C)C(=O)N1CCCc2c1cnn2-c1ccc(Cl)cc1,< 1000
2,Cc1c(Cl)c(C(F)(F)F)nn1C(C)C(=O)N1CCCc2c1cnn2-c1ccc(F)cc1 (stereo not drawn),< 1000
3,CCC(C(=O)N1CCCc2c1cnn2-c1ccc(F)cc1)n1cc(C(F)(F)F)nc1C (stereo not drawn),< 1000
4,Cc1cc(C(F)(F)F)nn1CC(=O)N1CCCc2c1cnn2-c1ccc(F)cc1,< 1000
5,O=C(Cn1nc(C(F)(F)F)c2c1CCOC2)N1CCCc2c1cnn2-c1ccc(F)cc1,< 1000
6,O=C(Cn1cnc2ncccc21)N1CCCc2c1cnn2-c1ccc(F)cc1,2500 to 12500
7,O=C(Cn1cc(Cl)cn1)N1CCCc2c1cnn2-c1ccc(F)cc1,< 1000
8,O=C(Cn1ncc2c1CCCC2)N1CCCc2c1cnn2-c1ccc(F)cc1,< 1000
9,Cc1c(Cl)c(C(F)(F)F)cn1CC(=O)N1c2cnn(-c3ccc(F)cc3)c2CCC1C (stereo not drawn),< 1000
10,CC[C@@H](C(=O)N1CCCc2c1cnn2-c1ccc(F)cc1)n1nc(C(F)(F)F)c(Cl)c1C,< 1000
11,O=C(Cn1nc(C(F)(F)F)c2c1CCC2)N1CCCc2c1cnn2-c1ccc(F)cc1,< 1000
12,Cc1c(Cl)c(C(F)(F)F)nn1CC(=O)N1CCCc2c1cnn2-c1ccc(Cl)cc1,< 1000
13,O=C(Cn1cnc(C(F)(F)F)n1)N1CCCc2c1cnn2-c1ccc(F)cc1,< 1000
14,Cc1c(Cl)c(C#N)nn1CC(=O)N1CCCc2c1cnn2-c1ccc(F)cc1,< 1000
15,Cc1cc(C(F)(F)F)nn1C(C)C(=O)N1CCCc2c1cnn2-c1ccc(F)cc1 (stereo not drawn),< 1000
16,CCC(C(=O)N1CCCc2c1cnn2-c1ccc(F)cc1)n1nc(-c2ncccn2)c(Cl)c1C (stereo not drawn),< 1000
17,CC[C@H](C(=O)N1CCCc2c1cnn2-c1ccc(F)cc1)n1nc(C(F)(F)F)c(Cl)c1C,< 1000
18,O=C(Cn1cccn1)N1CCCc2c1cnn2-c1ccc(F)cc1,> 12500
19,O=C(Cn1cc(C(F)(F)F)cn1)N1CCCc2c1cnn2-c1ccc(F)cc1,< 1000
20,O=C(Cc1cccc(OC(F)(F)F)c1)N1CCCc2c1cnn2-c1ccc(F)cc1,1000 to 2500
21,Cc1c(Cl)c(C(F)(F)F)nn1CC(=O)N1CCCc2c1cnn2-c1ccc(F)cn1,< 1000
22,Cc1nc(C(F)(F)F)cn1[C@@H](C)C(=O)N1CCCc2c1cnn2-c1ccc(F)cc1,< 1000
23,COCC1CCc2c(cnn2-c2ccc(F)cc2)N1C(=O)Cn1nc(C(F)(F)F)c(Cl)c1C (stereo not drawn),< 1000
24,Cc1c(Cl)cnn1CC(=O)N1CCCc2c1cnn2-c1ccc(F)cc1,< 1000
25,Nc1ncnc2c1c(-c1ncc[nH]1)nn2CC(=O)N1CCCc2c1cnn2-c1ccc(F)cc1,< 1000
26,O=C(Cc1ccc(Cl)c(OC(F)(F)F)c1)N1CCCc2c1cnn2-c1ccc(F)cc1,< 1000

row,Compound,IC50 [nM]
1,Cc1nc(C(F)(F)F)cn1CC(=O)N1CCCc2c1cnn2-c1ccc(F)cc1,< 1000
2,Cc1c(Cl)c(C2=NCCN2)nn1CC(=O)N1CCCc2c1cnn2-c1ccc(F)cc1,< 1000
3,O=C(Cn1ccc(C(F)(F)F)n1)N1CCCc2c1cnn2-c1ccc(F)cc1,< 1000
4,O=C(Cc1nc2ccccc2[nH]1)N1CCCc2c1cnn2-c1ccc(F)cc1,< 1000
5,O=C(Cn1nc(-c2ncc[nH]2)c2cccnc21)N1CCCc2c1cnn2-c1ccc(F)cc1,< 1000
6,Cc1c(Cl)cccc1CC(=O)N1CCCc2c1cnn2-c1ccc(F)cc1,> 12500
7,Cc1nn(CC(=O)N2CCCc3c2cnn3-c2ccc(F)cc2)c(-c2ncccn2)c1Cl,< 1000
8,O=C(Cn1nc(C(F)(F)F)c2c1CCCC2)N1CCCc2c1cnn2-c1ccc(F)cc1,< 1000
9,O=C(Cn1nc(C(F)(F)F)c2c1OCCC2)N1CCCc2c1cnn2-c1ccc(F)cc1,< 1000
10,O=C(Cn1cnc(C(F)(F)F)c1)N1CCCc2c1cnn2-c1ccc(F)cc1,< 1000
11,O=C(Cc1ccc(Cl)cc1)N1CCCc2c1cnn2-c1ccc(F)cc1,< 1000
12,O=C(C(O)c1cccc(C(F)(F)F)c1)N1CCCc2c1cnn2-c1ccc(F)cc1 (stereo not drawn),1000 to 2500
13,O=C(Cn1cc(Cl)c(C(F)(F)F)n1)N1CCCc2c1cnn2-c1ccc(F)cc1,< 1000
14,O=C(Cc1ccc(Cl)c(C(F)(F)F)c1)N1CCCc2c1cnn2-c1ccc(F)cc1,< 1000
15,COCC(C(=O)N1CCCc2c1cnn2-c1ccc(F)cc1)n1nc(C(F)(F)F)c(Cl)c1C (stereo not drawn),< 1000
16,COC(=O)C1CCc2c(cnn2-c2ccc(F)cc2)N1C(=O)Cn1nc(C(F)(F)F)c(Cl)c1C (stereo not drawn),< 1000
17,Cc1cc(C(F)(F)F)nn1C(CC(=O)O)C(=O)N1CCCc2c1cnn2-c1ccc(F)cc1 (stereo not drawn),2500 to 12500
18,Cc1c(-c2ncon2)cnn1CC(=O)N1CCCc2c1cnn2-c1ccc(F)cc1,< 1000
19,Cc1c(Cl)c(S(C)(=O)=O)nn1CC(=O)N1CCCc2c1cnn2-c1ccc(F)cc1,< 1000
20,Cc1nc(C(F)(F)F)nn1C(C)C(=O)N1CCCc2c1cnn2-c1ccc(F)cc1 (stereo not drawn),< 1000
21,CCC(C(=O)N1CCCc2c1cnn2-c1ccc(F)cc1)n1nc(C(F)(F)F)c(Cl)c1C (stereo not drawn),< 1000
22,O=C(Cc1nc(C(F)(F)F)c2ccccn12)N1CCCc2c1cnn2-c1ccc(F)cc1,< 1000
23,O=C(Cc1ccc(C(F)(F)F)cc1)N1CCCc2c1cnn2-c1ccc(F)cc1,< 1000
24,O=C(Cc1ccc(OC(F)(F)F)cc1)N1CCCc2c1cnn2-c1ccc(F)cc1,< 1000
25,O=C(Cn1ncc2cccnc21)N1CCCc2c1cnn2-c1ccc(F)cc1,< 1000
26,Cc1cc(C(F)(F)F)nn1C(CC1CCOCC1)C(=O)N1CCCc2c1cnn2-c1ccc(F)cc1 (stereo not drawn),< 1000
